The text below walks through data of ChEMBL document CHEMBL4619804, “Target-Based Identification and Optimization of 5-Indazol-5-yl Pyridones as Toll-like Receptor 7 and 8 Antagonists Using a Biochemical TLR8 Antagonist Competition Assay” (J Med Chem, 2020).

Assay [1] addresses T1, Toll-like receptor 7 (Mus musculus, UniProt P58681).
T1 sequence (P58681 whole entry): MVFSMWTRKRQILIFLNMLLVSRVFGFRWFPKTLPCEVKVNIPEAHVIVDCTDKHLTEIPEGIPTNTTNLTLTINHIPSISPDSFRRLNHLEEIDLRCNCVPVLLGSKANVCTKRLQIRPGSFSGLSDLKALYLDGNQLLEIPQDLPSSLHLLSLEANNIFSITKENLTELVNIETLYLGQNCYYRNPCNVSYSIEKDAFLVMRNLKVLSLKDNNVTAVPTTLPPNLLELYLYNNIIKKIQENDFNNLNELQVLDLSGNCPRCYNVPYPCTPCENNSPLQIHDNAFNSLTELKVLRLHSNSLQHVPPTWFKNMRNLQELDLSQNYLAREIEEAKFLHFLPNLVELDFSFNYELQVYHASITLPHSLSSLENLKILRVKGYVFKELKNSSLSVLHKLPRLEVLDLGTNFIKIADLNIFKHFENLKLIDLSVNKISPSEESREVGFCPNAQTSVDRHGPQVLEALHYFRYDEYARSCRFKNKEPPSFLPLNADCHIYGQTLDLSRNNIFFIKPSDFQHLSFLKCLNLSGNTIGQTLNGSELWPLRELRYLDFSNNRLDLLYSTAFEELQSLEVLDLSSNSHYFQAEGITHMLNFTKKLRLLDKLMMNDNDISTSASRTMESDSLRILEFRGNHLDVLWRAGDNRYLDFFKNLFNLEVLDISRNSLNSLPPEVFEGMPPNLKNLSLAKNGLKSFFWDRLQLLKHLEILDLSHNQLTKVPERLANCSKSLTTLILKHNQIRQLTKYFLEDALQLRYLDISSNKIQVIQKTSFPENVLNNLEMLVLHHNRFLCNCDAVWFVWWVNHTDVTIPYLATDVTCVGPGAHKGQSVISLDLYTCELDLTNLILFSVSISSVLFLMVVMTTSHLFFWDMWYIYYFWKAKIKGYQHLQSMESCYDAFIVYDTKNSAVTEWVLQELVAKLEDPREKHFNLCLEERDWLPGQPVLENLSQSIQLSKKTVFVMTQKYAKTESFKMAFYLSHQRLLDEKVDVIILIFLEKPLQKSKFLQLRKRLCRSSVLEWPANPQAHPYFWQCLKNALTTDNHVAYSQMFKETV
Nature of the assay: Antagonist activity at TLR7 in mouse whole blood assessed as inhibition of DOTAP-ssRNA40 induced IFNalpha production preincubated for 30 mins followed by ssRNA40 addition measured after 20 hrs by ELISA. Type of assay: tissue-based. For orientation: In an ELISA, binding on a coated surface is turned into a signal by an enzyme label.

The target of assay [2] is T2, Toll-like receptor 9 (Homo sapiens, UniProt Q9NR96).
T2 sequence (Q9NR96 whole entry): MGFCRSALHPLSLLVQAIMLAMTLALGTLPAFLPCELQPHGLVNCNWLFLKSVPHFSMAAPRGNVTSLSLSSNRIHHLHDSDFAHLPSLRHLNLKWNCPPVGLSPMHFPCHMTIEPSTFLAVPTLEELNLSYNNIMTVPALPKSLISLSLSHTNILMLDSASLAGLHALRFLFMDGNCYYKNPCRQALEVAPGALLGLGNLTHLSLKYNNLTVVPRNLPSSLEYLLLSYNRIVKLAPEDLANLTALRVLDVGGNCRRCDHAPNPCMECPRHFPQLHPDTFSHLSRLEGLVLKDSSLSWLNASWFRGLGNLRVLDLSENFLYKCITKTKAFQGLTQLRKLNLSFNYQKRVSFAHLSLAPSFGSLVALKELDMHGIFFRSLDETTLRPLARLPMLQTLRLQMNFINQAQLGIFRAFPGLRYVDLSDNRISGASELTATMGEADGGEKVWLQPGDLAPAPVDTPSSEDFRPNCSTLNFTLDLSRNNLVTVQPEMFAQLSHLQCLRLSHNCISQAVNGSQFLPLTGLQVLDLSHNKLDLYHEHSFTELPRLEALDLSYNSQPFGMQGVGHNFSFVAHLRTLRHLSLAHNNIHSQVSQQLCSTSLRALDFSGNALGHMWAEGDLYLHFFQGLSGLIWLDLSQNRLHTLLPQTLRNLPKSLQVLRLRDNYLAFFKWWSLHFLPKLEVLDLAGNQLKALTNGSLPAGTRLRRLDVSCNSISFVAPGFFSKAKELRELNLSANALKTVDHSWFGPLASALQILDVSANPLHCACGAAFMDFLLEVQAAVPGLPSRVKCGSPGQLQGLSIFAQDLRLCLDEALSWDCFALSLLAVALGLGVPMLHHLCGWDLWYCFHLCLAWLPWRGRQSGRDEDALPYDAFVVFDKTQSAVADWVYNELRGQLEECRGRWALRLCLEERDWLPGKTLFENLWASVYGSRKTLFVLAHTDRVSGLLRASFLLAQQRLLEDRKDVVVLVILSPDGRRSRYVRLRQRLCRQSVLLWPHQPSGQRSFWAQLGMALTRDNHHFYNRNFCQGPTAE
Nature of the assay: Antagonist activity at TLR9 in human whole blood inhibition of DOTAP-ODN2216-induced IFNalpha production preincubated for 30 mins followed by DOTAP-ODN2216 addition and measured after 20 hrs by ELISA. Type of assay: tissue-based.

pIC50: −log10 of the molar value.

On to `O=c1ccc(-c2cc(C(F)(F)F)c3nn([C@H]4CCNC[C@@H]4F)cc3c2)c2n1CCC2`, for which the pIC50 (in general, the negative decadic logarithm of the IC50, by convention in mol/L) in assay [1] is 6.74; in assay [2] it was less than 5.00.
